Experimental data as given in the CheMixHub ionic liquid set.

Assay: xn = mol fraction of the nth substance listed
Conditions: 100 kPa

CCCCCCCC[n+]1ccccc1.[Br-] + CC(C)C[C@H](NC(=O)CN)C(=O)O + O
Conditions | electrical conductivity [S/m]
288.15 K, x2 = 0.0008948, x1 = 0.005958 | 1.18
288.15 K, x2 = 0.0008949, x1 = 0.005845 | 1.16
288.15 K, x2 = 0.0008952, x1 = 0.005555 | 1.12
288.15 K, x2 = 0.0008955, x1 = 0.005223 | 1.08
288.15 K, x2 = 0.0008958, x1 = 0.004874 | 1.04
288.15 K, x2 = 0.0008961, x1 = 0.00451 | 0.998
288.15 K, x2 = 0.0008965, x1 = 0.00409 | 0.947
288.15 K, x2 = 0.0008969, x1 = 0.003625 | 0.867
288.15 K, x2 = 0.0008973, x1 = 0.003174 | 0.789
288.15 K, x2 = 0.0008978, x1 = 0.002616 | 0.679
288.15 K, x2 = 0.0008984, x1 = 0.002001 | 0.558
288.15 K, x2 = 0.0008987, x1 = 0.001608 | 0.469
288.15 K, x2 = 0.0008991, x1 = 0.001214 | 0.381
288.15 K, x2 = 0.0008996, x1 = 0.0007137 | 0.253
288.15 K, x2 = 0.001788, x1 = 0.005808 | 1.12
288.15 K, x2 = 0.001789, x1 = 0.005199 | 1.05
288.15 K, x2 = 0.001789, x1 = 0.005515 | 1.09
288.15 K, x2 = 0.00179, x1 = 0.004871 | 1.01
288.15 K, x2 = 0.001791, x1 = 0.00409 | 0.911
288.15 K, x2 = 0.001791, x1 = 0.004503 | 0.962
288.15 K, x2 = 0.001792, x1 = 0.003639 | 0.855
288.15 K, x2 = 0.001793, x1 = 0.003149 | 0.766
288.15 K, x2 = 0.001794, x1 = 0.002603 | 0.666
288.15 K, x2 = 0.001795, x1 = 0.002003 | 0.545
288.15 K, x2 = 0.001796, x1 = 0.001632 | 0.462
288.15 K, x2 = 0.001797, x1 = 0.0008258 | 0.273
288.15 K, x2 = 0.001797, x1 = 0.001246 | 0.37
293.15 K, x2 = 0.0008948, x1 = 0.005956 | 1.31
293.15 K, x2 = 0.0008949, x1 = 0.005843 | 1.3
293.15 K, x2 = 0.0008952, x1 = 0.005554 | 1.27
293.15 K, x2 = 0.0008955, x1 = 0.005223 | 1.22
293.15 K, x2 = 0.0008958, x1 = 0.004874 | 1.17
293.15 K, x2 = 0.0008961, x1 = 0.004508 | 1.12
293.15 K, x2 = 0.0008965, x1 = 0.004089 | 1.06
293.15 K, x2 = 0.0008969, x1 = 0.003623 | 0.983
293.15 K, x2 = 0.0008973, x1 = 0.003174 | 0.894
293.15 K, x2 = 0.0008978, x1 = 0.002616 | 0.781
293.15 K, x2 = 0.0008984, x1 = 0.002001 | 0.632
293.15 K, x2 = 0.0008987, x1 = 0.001608 | 0.526
293.15 K, x2 = 0.0008991, x1 = 0.001214 | 0.427
293.15 K, x2 = 0.0008996, x1 = 0.0007137 | 0.283
293.15 K, x2 = 0.001788, x1 = 0.005807 | 1.28
293.15 K, x2 = 0.001789, x1 = 0.005198 | 1.19
293.15 K, x2 = 0.001789, x1 = 0.005513 | 1.24
293.15 K, x2 = 0.00179, x1 = 0.004869 | 1.14
293.15 K, x2 = 0.001791, x1 = 0.00409 | 1.04
293.15 K, x2 = 0.001791, x1 = 0.004503 | 1.1
293.15 K, x2 = 0.001792, x1 = 0.003637 | 0.959
293.15 K, x2 = 0.001793, x1 = 0.003149 | 0.869
293.15 K, x2 = 0.001794, x1 = 0.002603 | 0.756
293.15 K, x2 = 0.001795, x1 = 0.002003 | 0.615
293.15 K, x2 = 0.001796, x1 = 0.001632 | 0.523
293.15 K, x2 = 0.001797, x1 = 0.0008258 | 0.306
293.15 K, x2 = 0.001797, x1 = 0.001246 | 0.419
298.15 K, x2 = 0.0008948, x1 = 0.005954 | 1.49
298.15 K, x2 = 0.0008949, x1 = 0.005843 | 1.48
298.15 K, x2 = 0.0008952, x1 = 0.005554 | 1.44
298.15 K, x2 = 0.0008955, x1 = 0.005221 | 1.38
298.15 K, x2 = 0.0008958, x1 = 0.004872 | 1.34
298.15 K, x2 = 0.0008961, x1 = 0.004508 | 1.29
298.15 K, x2 = 0.0008965, x1 = 0.004089 | 1.21
298.15 K, x2 = 0.0008969, x1 = 0.003623 | 1.12
298.15 K, x2 = 0.0008973, x1 = 0.003174 | 1.02
298.15 K, x2 = 0.0008978, x1 = 0.002616 | 0.883
298.15 K, x2 = 0.0008984, x1 = 0.002001 | 0.72
298.15 K, x2 = 0.0008987, x1 = 0.001608 | 0.604
298.15 K, x2 = 0.0008991, x1 = 0.001214 | 0.48
298.15 K, x2 = 0.0008996, x1 = 0.0007137 | 0.314
298.15 K, x2 = 0.001788, x1 = 0.005807 | 1.46
298.15 K, x2 = 0.001789, x1 = 0.005198 | 1.36
298.15 K, x2 = 0.001789, x1 = 0.005513 | 1.41
298.15 K, x2 = 0.00179, x1 = 0.004869 | 1.31
298.15 K, x2 = 0.001791, x1 = 0.004088 | 1.17
298.15 K, x2 = 0.001791, x1 = 0.004501 | 1.25
298.15 K, x2 = 0.001792, x1 = 0.003637 | 1.09
298.15 K, x2 = 0.001793, x1 = 0.003149 | 0.978
298.15 K, x2 = 0.001794, x1 = 0.002603 | 0.849
298.15 K, x2 = 0.001795, x1 = 0.002003 | 0.689
298.15 K, x2 = 0.001796, x1 = 0.001632 | 0.585
298.15 K, x2 = 0.001797, x1 = 0.0008258 | 0.341
298.15 K, x2 = 0.001797, x1 = 0.001246 | 0.469
303.15 K, x2 = 0.0008948, x1 = 0.005952 | 1.67
303.15 K, x2 = 0.0008949, x1 = 0.005839 | 1.65
303.15 K, x2 = 0.0008952, x1 = 0.00555 | 1.6
303.15 K, x2 = 0.0008955, x1 = 0.005219 | 1.54
303.15 K, x2 = 0.0008958, x1 = 0.00487 | 1.49
303.15 K, x2 = 0.0008961, x1 = 0.004507 | 1.43
303.15 K, x2 = 0.0008965, x1 = 0.004087 | 1.34
303.15 K, x2 = 0.0008969, x1 = 0.003621 | 1.24
303.15 K, x2 = 0.0008973, x1 = 0.003172 | 1.12
303.15 K, x2 = 0.0008978, x1 = 0.002616 | 0.97
303.15 K, x2 = 0.0008984, x1 = 0.001999 | 0.789
303.15 K, x2 = 0.0008987, x1 = 0.001608 | 0.66
303.15 K, x2 = 0.0008991, x1 = 0.001214 | 0.531
303.15 K, x2 = 0.0008996, x1 = 0.0007137 | 0.347
303.15 K, x2 = 0.001789, x1 = 0.005196 | 1.52
303.15 K, x2 = 0.001789, x1 = 0.005509 | 1.58
303.15 K, x2 = 0.00179, x1 = 0.004867 | 1.46
303.15 K, x2 = 0.001791, x1 = 0.004088 | 1.31
303.15 K, x2 = 0.001791, x1 = 0.004501 | 1.4
303.15 K, x2 = 0.001792, x1 = 0.003637 | 1.21
303.15 K, x2 = 0.001793, x1 = 0.003148 | 1.09
303.15 K, x2 = 0.001794, x1 = 0.002601 | 0.944
303.15 K, x2 = 0.001795, x1 = 0.002003 | 0.768
303.15 K, x2 = 0.001796, x1 = 0.001632 | 0.65
303.15 K, x2 = 0.001797, x1 = 0.0008258 | 0.377
303.15 K, x2 = 0.001797, x1 = 0.001246 | 0.521
308.15 K, x2 = 0.0008948, x1 = 0.005949 | 1.85
308.15 K, x2 = 0.0008949, x1 = 0.005837 | 1.83
308.15 K, x2 = 0.0008952, x1 = 0.005548 | 1.78
308.15 K, x2 = 0.0008955, x1 = 0.005217 | 1.71
308.15 K, x2 = 0.0008958, x1 = 0.004868 | 1.65
308.15 K, x2 = 0.0008961, x1 = 0.004505 | 1.57
308.15 K, x2 = 0.0008965, x1 = 0.004085 | 1.49
308.15 K, x2 = 0.0008969, x1 = 0.003621 | 1.36
308.15 K, x2 = 0.0008973, x1 = 0.003172 | 1.23
308.15 K, x2 = 0.0008978, x1 = 0.002614 | 1.06
308.15 K, x2 = 0.0008984, x1 = 0.001999 | 0.852
308.15 K, x2 = 0.0008987, x1 = 0.001608 | 0.718
308.15 K, x2 = 0.0008991, x1 = 0.001214 | 0.577
308.15 K, x2 = 0.0008996, x1 = 0.0007137 | 0.379
308.15 K, x2 = 0.001789, x1 = 0.005194 | 1.69
308.15 K, x2 = 0.001789, x1 = 0.005508 | 1.75
308.15 K, x2 = 0.00179, x1 = 0.004866 | 1.63
308.15 K, x2 = 0.001791, x1 = 0.004086 | 1.46
308.15 K, x2 = 0.001791, x1 = 0.004499 | 1.55
308.15 K, x2 = 0.001792, x1 = 0.003635 | 1.33
308.15 K, x2 = 0.001793, x1 = 0.003148 | 1.21
308.15 K, x2 = 0.001794, x1 = 0.002601 | 1.04
308.15 K, x2 = 0.001795, x1 = 0.002003 | 0.843
308.15 K, x2 = 0.001796, x1 = 0.00163 | 0.713
308.15 K, x2 = 0.001797, x1 = 0.0008258 | 0.415
308.15 K, x2 = 0.001797, x1 = 0.001246 | 0.576
